# Source: patent US10722530B2, “Methods of diagnosing and treating cancer” (CASE WESTERN RESERVE UNIVERSITY, priority 2016, dated 2020)
# Read-outs that look alike come from different tables or passages of the source.
# What was measured:
# γH2AX foci in DLD1 cells = assay: γH2AX foci immunofluorescence staining; assay type: cell-based, human; details: 10 μM Q-VD-OPh with 50 nM 5-FdU, DLD1 shSCR or shUDG
# Protocol: (§1) Cells cultured on glass coverslips were treated with 5-FdU in the presence or absence of 10 μM caspase inhibitor Q-VD-OPH (BioVision Inc). Cells were fixed in 3.7% formaldehyde for 10 minutes, blocked with PBS containing 10% FBS and 0.1% Triton X-100 for 20 minutes, washed with PBS three times, and incubated with primary anti-γH2AX antibody (Millipore, dilution: 1:150) in PBS containing 0.1% Triton X-100 at 4° C. overnight. The cells were then washed with PBS three times, incubated with secondary antibodies (Alexa Fluor 594, Life Technologies; dilution: 1:400) in PBS containing 0.1% Triton X-100 for 1 h, and washed with PBS three times. The slides were mounted with antifade solution with DAPI (Cell Signaling) and visualized on a Leica laser microscope.
# [1] = tested on: γH2AX foci in HEC1A cells; assay: γH2AX foci immunofluorescence staining; assay type: cell-based, human; details: 10 μM Q-VD-OPh with 50 nM 5-FdU, HEC1A shSCR or shUDG
# Protocol: as §1
# [2] = tested on: cleaved PARP in HEC1A cells; assay: Western blot of cleaved PARP; assay type: cell-based, human; details: 10 μM Q-VD-OPh, 50 nM 5-FdU, HEC1A shSCR and shUDG
# Protocol: (§2) Western blots were performed as described in Yan et al. (Clin Cancer Res. (2007) 13:1532-39). Antibodies used were as follows: Anti-UDG (FL-313) (Santa Cruz Biotechnology), anti-Cleaved PARP (Asp214)(19F4) (Cell Signaling), and anti-α-Tubulin (Calbiochem).
# [3] = tested on: cleaved PARP in DLD1 cells; assay: Western blot of cleaved PARP; assay type: cell-based, human; details: 10 μM Q-VD-OPh, 50 nM 5-FdU, DLD1 shSCR and shUDG
# Protocol: as §2
# [4] = tested on: HEC1A endometrial cancer cells; assay: Colony survival assay, shSCR and shUDG cells; assay type: cell-based, human; details: HEC1A shUDG vs shSCR
# Protocol: UDG knockdown was performed via shRNA transduction with validated clone from Sigma-Aldrich. The ID of UDG shRNA clone is NM_003362.2-656s21c1. A non-targeted scramble control shRNA clone (Sigma-Aldrich) was also used. Transfection of shRNA clones was performed according to manufacturer's specifications from Lipofectamine 2000 (Invitrogen). Lentiviral particles were produced via HEK293 cells, and targeted cells were infected and selected with puromycin. The stable UDG knockdown levels were verified for q-PCR and western blot analysis.
# DLD1 (200 cells/well) or HEC1A (300 cells/well) cells were plated in 6-well culture dishes and allowed to adhere for 16 h. Cells were treated with drug for 24 h, gently washed twice with 1×PBS, and incubated with fresh media for at least 10 days to allow individual colonies to form. Colonies were stained with methylene blue, and only colonies containing ≥50 cells were counted. The percentage of survival was determined relative to untreated control averaged over 3 independent experiments.
# DLD1 colon cancer cells = details: for effect of UDG depletion on drug sensitivity: DLD1 shUDG vs shSCR
# Protocol: UDG knockdown was performed via shRNA transduction with validated clone from Sigma-Aldrich. […] A non-targeted scramble control shRNA clone (Sigma-Aldrich) was also used. Transfection of shRNA clones was performed according to manufacturer's specifications from Lipofectamine 2000 (Invitrogen). Lentiviral particles were produced via HEK293 cells, and targeted cells were infected and selected with puromycin. The stable UDG knockdown levels were verified for q-PCR and western blot analysis.
# Colonies were stained with methylene blue, and only colonies containing ≥50 cells were counted. The percentage of survival was determined relative to untreated control averaged over 3 independent experiments.
# From the text for HCT116 p53 KO cells: (§3) p53 or UDG knockdown was achieved via shRNA transduction. Lentiviral vectors LV-THM-shp53 (which also expresses a GFP reporter) or LV-Bleo-shp53 to perform p53 KD in WT HCT116 cells were obtained from Case Western Reserve University, Cleveland, Ohio Lentiviral vector targeting GFP (sh-GFP) was used as control. UDG shRNA vectors (shUDG: NM_003362.2-656s21c1, shUDG-2: NM_003362.2-758s21c1, and shUDG-3: NM_003362.2-893s21c1) were purchased from Sigma, and a scramble targeting shRNA vector (Sigma) was used as paired control. The lentiviral production and infection were performed as previously described. Cells stably infected with LV-THM-p53 were isolated by cell sorting on the basis of their GFP expression.
# (§4) Cancer cells (200-300 cells/well) were seeded in 6-well culture dishes and allowed to adhere overnight. For 5-FdU, cells were treated for 24 h, then gently washed with PBS, and incubated with fresh media for at least 10 days to allow individual colonies to form. […] After 10-18 days, the plates were stained with methylene blue. Colonies containing ≥50 cells were counted. The percentage of survival was determined relative to untreated control averaged over 3 independent experiments.
# From the text for HCT116 p53 WT cells: as §3, §4
structure (smiles),measurement,setting,value
"O=c1[nH]cc(F)c(=O)[nH]1 [5-FU, 5-Fluorouracil]",effect of UDG depletion on cytotoxicity,"HCT116 p53 KO cells; HCT116 p53 KO, shUDG vs shSCR",only moderately sensitized
same,effect of UDG depletion on cytotoxicity,"HCT116 p53 WT cells; HCT116 p53 WT, shUDG vs shSCR",no significant survival differences
CC(C)[C@H](NC(=O)c1ccc2ccccc2n1)C(=O)N[C@@H](CC(=O)O)C(=O)COc1c(F)cccc1F [Q-VD-OPh],"γH2AX foci, Q-VD-OPh treated vs non-treated",γH2AX foci in DLD1 cells,essentially the same
same,"γH2AX foci, Q-VD-OPh treated vs non-treated",[1],essentially the same
same,cleaved PARP induced by 5-FdU in presence of Q-VD-OPh,[2],almost completely blocked
same,cleaved PARP induced by 5-FdU in presence of Q-VD-OPh,[3],almost completely blocked
"N.N.[Cl][Pt][Cl] [cisplatin, cis-diamminedichloroplatinum II]",effect of UDG depletion on drug sensitivity,[4],no further sensitivity
same,effect of UDG depletion on drug sensitivity,DLD1 colon cancer cells,no further sensitivity
COc1cccc2c1C(=O)c1c(O)c3c(c(O)c1C2=O)C[C@@](O)(C(=O)CO)C[C@@H]3O[C@H]1C[C@H](N)[C@H](O)[C@H](C)O1 [doxorubicin],effect of UDG depletion on drug sensitivity,[4],no further sensitivity
same,effect of UDG depletion on drug sensitivity,DLD1 colon cancer cells,no further sensitivity
Nc1nc2[nH]cc(CCc3ccc(C(=O)N[C@@H](CCC(=O)O)C(=O)O)cc3)c2c(=O)[nH]1 [pemetrexed],effect of UDG depletion on drug sensitivity,[4],sensitization was also observed
same,effect of UDG depletion on drug sensitivity,DLD1 colon cancer cells,sensitization was also observed
same,effect of UDG depletion on cytotoxicity,HCT116 p53 KO cells,sensitized
same,effect of UDG depletion on cytotoxicity,HCT116 p53 WT cells,no significant survival differences
Cc1cn([C@H]2C[C@H](O)[C@@H](CO)O2)c(=O)[nH]c1=O [thymidine],rescue of 5-FdU cell death by thymidine given 24 h after,"DLD1 colon cancer cells; 20 μM thymidine 24 h after 5-FdU, UDG depleted cells",barely inhibited cell death
same,cell killing by 5-FdU with simultaneous thymidine,"DLD1 colon cancer cells; 20 μM thymidine simultaneously with 0 to 200 nM 5-FdU, shSCR or shUDG",almost no killing
